Test results reported in US8193189B2, “Quinoxaline derivatives as tyrosine kinase activity inhibitors” (Novartis AG, priority 2007, dated 2012).

Tests used:
[1] = system: JAK/STAT pathway (JAK1/JAK2-dependent nuclear translocation of STAT1-GFP); test: Inhibition of the JAK/STAT pathway: IFN-γ stimulated nuclear translocation of STAT1-GFP in HT1080 fibrosarcoma cells; format: cell-based; details: Homo sapiens, HT-1080; HT1080 STAT1-GFP cells, 100 ng/ml IFN-γ 2 hours, compound added 30 min before; read-out: STAT1translo IC50
Procedure, shortened: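 Readout is the nuclear-minus-cytoplasmic GFP-STAT1 intensity, imaged at 10× using Hoechst-defined nuclear masks over at least 1000 cells/well. Stably transfected HT1080 fibrosarcoma cells were pretreated 30 min with compound (final 0.003–10 μM, 0.1% DMSO) before IFN-γ challenge.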

GST-JAK2(808-1132) = target: T1, GST-JAK2(808-1132) (Homo sapiens, UniProt O60674); test: EPK JAK-family kinases profiling assay (Caliper mobility shift), JAK2; format: biochemical; details: ATP 20 μM, 1.8 nM kinase
T1 construct: GST-JAK2(808-1132); purchased Invitrogen (Carlsbad, USA) #4288
Procedure, shortened: (§1)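 Turnover was read as substrate/product ratio after mobility-shift capillary-like separation of each reaction, run for 60 min at 30 °C with GST-tagged kinase domain, labelled peptide and ATP, and terminated with EDTA stop buffer.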

GST-JAK3(811-1124) = target: T2, GST-JAK3(811-1124) (Homo sapiens, UniProt P52333); test: EPK JAK-family kinases profiling assay (Caliper mobility shift), JAK3; format: biochemical; details: ATP 80 μM, 6 nM kinase
T2 construct: GST-JAK3(811-1124); made in house
Procedure, shortened: as §1

GST-TYK2(888-1187) = target: T3, GST-TYK2(888-1187) (Homo sapiens, UniProt P29597); test: EPK JAK-family kinases profiling assay (Caliper mobility shift), TYK2; format: biochemical; details: ATP 30 μM, 40 nM kinase
T3 construct: GST-TYK2(888-1187); made in house
T3 sequence (P29597 888-1187): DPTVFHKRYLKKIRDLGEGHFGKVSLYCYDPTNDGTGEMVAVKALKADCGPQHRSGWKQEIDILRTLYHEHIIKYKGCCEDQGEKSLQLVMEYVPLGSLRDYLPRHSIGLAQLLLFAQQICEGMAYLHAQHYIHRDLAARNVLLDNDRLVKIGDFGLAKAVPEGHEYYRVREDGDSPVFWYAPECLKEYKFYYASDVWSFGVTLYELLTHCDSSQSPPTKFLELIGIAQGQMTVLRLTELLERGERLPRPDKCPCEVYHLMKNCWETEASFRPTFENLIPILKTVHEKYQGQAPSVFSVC
Procedure, shortened: as §1

GST-JAK1(866-1154) = target: T4, GST-JAK1(866-1154) (Homo sapiens, UniProt P23458); test: EPK JAK-family kinases profiling assay (Caliper mobility shift), JAK1; format: biochemical; details: ATP 40 μM, 50 nM kinase
T4 construct: GST-JAK1(866-1154); made in house
Procedure, shortened: as §1

T2 sequence (P52333 811-1124): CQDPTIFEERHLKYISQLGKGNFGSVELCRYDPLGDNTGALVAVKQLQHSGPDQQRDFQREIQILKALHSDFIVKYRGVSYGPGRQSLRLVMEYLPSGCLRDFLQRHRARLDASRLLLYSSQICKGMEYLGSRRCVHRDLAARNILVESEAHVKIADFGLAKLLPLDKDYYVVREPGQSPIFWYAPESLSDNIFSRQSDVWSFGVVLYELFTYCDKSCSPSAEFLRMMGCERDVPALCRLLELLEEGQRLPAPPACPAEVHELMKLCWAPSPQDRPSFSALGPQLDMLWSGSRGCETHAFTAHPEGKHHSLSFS
T4 sequence (P23458 866-1154): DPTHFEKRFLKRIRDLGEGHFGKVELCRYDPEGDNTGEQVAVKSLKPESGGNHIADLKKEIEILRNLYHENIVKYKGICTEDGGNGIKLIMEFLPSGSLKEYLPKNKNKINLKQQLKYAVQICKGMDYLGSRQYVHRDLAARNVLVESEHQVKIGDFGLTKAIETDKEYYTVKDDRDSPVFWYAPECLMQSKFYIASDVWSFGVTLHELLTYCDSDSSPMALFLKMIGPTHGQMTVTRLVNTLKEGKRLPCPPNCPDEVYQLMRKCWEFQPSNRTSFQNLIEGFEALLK
T1 sequence (O60674 808-1132): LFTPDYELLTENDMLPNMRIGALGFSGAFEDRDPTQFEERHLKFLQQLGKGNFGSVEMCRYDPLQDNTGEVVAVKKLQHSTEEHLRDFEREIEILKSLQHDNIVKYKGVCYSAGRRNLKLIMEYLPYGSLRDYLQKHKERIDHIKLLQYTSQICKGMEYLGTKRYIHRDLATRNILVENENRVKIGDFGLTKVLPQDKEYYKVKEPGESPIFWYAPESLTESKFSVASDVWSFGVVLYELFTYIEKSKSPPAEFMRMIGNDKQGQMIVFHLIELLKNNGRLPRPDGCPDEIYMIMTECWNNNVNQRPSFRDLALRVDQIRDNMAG

Compound | IC50 [1] | IC50 (GST-JAK2(808-1132)) | IC50 (GST-JAK3(811-1124)) | IC50 (GST-TYK2(888-1187)) | IC50 (GST-JAK1(866-1154))
COCCN1CCC(n2cc(-c3cnc4cccc(-c5cc(F)c(CN6CCOCC6)c(F)c5)c4n3)cn2)CC1 [Example 123, 8-(3,5-Difluoro-4-morpholin-4-ylmethyl-phenyl)-2-{1-[1-(2-methoxy-ethyl)-piperidin-4-yl]-1H-pyrazol-4-yl}-quinoxaline] | 0.18 µM | 0.005 µM | 1.95 µM | 0.17 µM | 0.135 µM
COc1cc(-c2cnc3cccc(-c4ccc(C(=O)N5CCOCC5)c(C)c4)c3n2)ccc1N1CCN(C)CC1 [Example 105, (4-{3-[3-Methoxy-4-(4-methyl-piperazin-1-yl)-phenyl]-quinoxalin-5-yl}-2-methyl-phenyl)-morpholin-4-yl-methanone] | 0.895 µM | 0.032 µM | 1.8 µM | 0.985 µM | 0.81 µM
COc1cc(-c2cnc3cccc(-c4cc(F)c(CN5CCOCC5)c(F)c4)c3n2)ccc1N1CCN(C)CC1 [Example 104, 8-(3,5-Difluoro-4-morpholin-4-ylmethyl-phenyl)-2-[3-methoxy-4-(4-methyl-piperazin-1-yl)-phenyl]-quinoxaline] | 0.42 µM | < 0.003 µM | 0.39 µM | 0.13 µM | 0.052 µM
COc1cc(-c2cnc3cccc(-c4cc(F)c(CN5CCOCC5)c(F)c4)c3n2)ccc1OCCCN1CCOCC1 [Example 84, 8-(3,5-Difluoro-4-morpholin-4-ylmethyl-phenyl)-2-[3-methoxy-4-(3-morpholin-4-yl-propoxy)-phenyl]-quinoxaline] | 1.46 µM | 0.0055 µM | 0.975 µM | 0.27 µM | 0.0585 µM
CS(=O)(=O)c1ccc(-c2cccc3ncc(-c4cnn(C5CCNCC5)c4)nc23)cc1F [Example 99, 8-(3-Fluoro-4-methanesulfonyl-phenyl)-2-(1-piperidin-4-yl-1H-pyrazol-4-yl)-quinoxaline] | 1.36 µM | 0.022 µM | 4.85 µM | 0.805 µM | 0.87 µM
